Among the data in patent US9556153B1, “JAK1 inhibitors” (Eli Lilly and Company, priority 2015, dated 2017) are IC50 values, retold here.

Experiment [1] deals with T1, JAK1 (Homo sapiens, UniProt P23458). Put plainly: AlphaScreen SureFire IL6-TF-1-JAK1 cell-based assay (pSTAT3 detection). The conditions noted are these: TF-1 cells, IL6 30 ng/mL; n=10; read-out: IC50, IL6-stimulated TF-1 JAK1 cell-based assay. Details: endogenous in cells; host or cells: TF-1 cells. On the procedure: AlphaScreen SureFire Protocol […]-(p-Tyr705)-IL6-TF-1-JAK1 Cell-Based Assay
T1 sequence (P23458 whole entry): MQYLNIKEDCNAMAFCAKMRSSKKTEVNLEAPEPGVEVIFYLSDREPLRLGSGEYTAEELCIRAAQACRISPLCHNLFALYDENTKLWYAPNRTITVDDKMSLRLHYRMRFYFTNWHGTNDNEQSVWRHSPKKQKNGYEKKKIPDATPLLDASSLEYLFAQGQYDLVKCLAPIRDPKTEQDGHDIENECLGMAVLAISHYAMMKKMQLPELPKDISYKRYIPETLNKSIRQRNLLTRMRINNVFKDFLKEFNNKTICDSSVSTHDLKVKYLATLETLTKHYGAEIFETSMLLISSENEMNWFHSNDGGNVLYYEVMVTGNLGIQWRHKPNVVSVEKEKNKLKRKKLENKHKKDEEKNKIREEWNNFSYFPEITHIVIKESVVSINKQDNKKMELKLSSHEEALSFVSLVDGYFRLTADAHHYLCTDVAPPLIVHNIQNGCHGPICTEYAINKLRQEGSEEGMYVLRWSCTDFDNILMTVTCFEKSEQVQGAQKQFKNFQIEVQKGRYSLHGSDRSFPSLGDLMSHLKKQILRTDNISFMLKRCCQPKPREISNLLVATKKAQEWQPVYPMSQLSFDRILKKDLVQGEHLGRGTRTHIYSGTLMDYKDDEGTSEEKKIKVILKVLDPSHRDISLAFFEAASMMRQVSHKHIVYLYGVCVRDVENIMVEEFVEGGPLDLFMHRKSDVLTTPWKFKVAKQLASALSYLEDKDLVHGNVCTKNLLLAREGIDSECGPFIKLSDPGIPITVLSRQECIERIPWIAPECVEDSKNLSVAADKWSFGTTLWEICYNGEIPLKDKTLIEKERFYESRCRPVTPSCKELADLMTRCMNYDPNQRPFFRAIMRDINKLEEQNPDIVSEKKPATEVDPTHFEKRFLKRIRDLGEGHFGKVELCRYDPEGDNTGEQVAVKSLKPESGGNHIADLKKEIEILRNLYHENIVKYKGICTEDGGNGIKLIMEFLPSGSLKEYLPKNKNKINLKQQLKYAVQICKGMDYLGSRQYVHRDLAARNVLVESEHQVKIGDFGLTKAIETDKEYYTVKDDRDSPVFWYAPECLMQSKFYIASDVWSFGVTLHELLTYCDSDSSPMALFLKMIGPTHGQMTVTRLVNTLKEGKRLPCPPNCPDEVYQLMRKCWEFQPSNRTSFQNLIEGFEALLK
The JAK1 cell based assay described below is used to determine the JAK1 cellular potency of test compounds.
Starve TF-1 cells in DMEM medium with 0.5% […] and 1× Pen/Strep at 37° C. Plate 100K cells per well in BD 96 well black plates with clear bottoms. Maintain the plates at RT for 30-60 minutes before incubating overnight at 37° C. and 5% CO2. Count cells using Vi-Cell counter, using a cell suspension at […] and plated 100 μL/well in […] Biocoat plates (Catalog #354640).
Prepare compounds at 1:3 serial dilutions in DMSO and further dilute into the medium. Test compounds in a range of 10 point concentrations from 20,000 to 1 nM. Add diluted compound to corresponding cell plates. […]
Perform the following steps sequentially: make acceptor mix (activation buffer/reaction buffer/acceptor beads); transfer 4 μL lysate from 96 well plates to 384 well-Proxiplates; add 5 μL acceptor mix to 384 proxiplate plate(s) and seal plates with aluminum seal; shake 1-2 minutes on plate shaker; incubate plate at RT for 2 hr with gentle shaking; make donor mix (donor beads in dilution buffer); add 2 μL donor mix to assay plates; seal plates with aluminum seal; shake 1-2 minutes on plate shaker; incubate at RT for 2 hr with gentle shaking; read plate with Envision; protocol AlphaScreen Surefire 384.
In general terms: In Alpha technology, singlet oxygen from a donor bead excites a nearby acceptor bead.

In experiment [2] the target is T1, JAK1. Put plainly: Phospho-STAT3 (Tyr705) ACUMEN H1975-JAK1 cell-based assay. The conditions noted are these: H1975 NSCLC cells, 4 hr; n=1; read-out: IC50, pSTAT3 (Tyr705) in H1975 cells. On the set-up: endogenous in cells. On the procedure:
Phospho-STAT3 (Tyr705) ACUMEN Protocol—H1975-JAK1 Cell-Based Assay
An H1975-JAK1 cellular assay is used to confirm the potency of test compounds in NSCLC cells in which the STAT3 pathway is activated by autocrine IL-6 loop. […]
On Day 2, perform the following steps sequentially: wash 2 times with 100 μL PBS; add 50 μL of secondary antibody (1:1000; Ab2° goat anti-mouse IgG); incubate for 1 hour at RT in the dark; wash 2 times with 100 μL PBS; add 100 μL of Propidium Iodide (1:1000 in PBS from commercial solution) containing RNAse (50 μg/mL in PBS); seal plates with transparent film and incubate at RT for 2 hours before reading; read on Acumen Explorer (set parameter based on positive and negative well). […]

The structures appear in SMILES notation. pIC50: −log10 of the molar value.

Broadly, the pIC50 is the negative decadic logarithm of the IC50, by convention in mol/L. For `Cc1cc(Nc2cc(O[C@H]3CC[C@@H](NC[C@@H](O)C(F)(F)F)CC3)cc3c2ncn3C)nn1C` [Example 1, (2R)-3-{[cis-4-({4-[(1,5-Dimethyl-1H-pyrazol-3-yl)amino]-1-methyl-1H-benzimidazol-6-yl}oxy)cyclohexyl]amino}-1,1,1-trifluoropropan-2-ol], the pIC50 was 7.06 at JAK1 [1] and 6.53 on JAK1 [2].
